Source: patent US12139458B2, “(2,5-dioxopyrrolidin-1-yl)(phenyl)-acetamide derivatives and their use in the treatment of neurological diseases” (UNIWERSYTET JAGIELLONSKI, priority 2019, dated 2024)
Counter-ions that a name gives are not always drawn.

What was measured:
[1] = system: male Swiss albino mice (CD-1); experiment: Subcutaneous pentylenetetrazole seizure test (scPTZ); type: in vivo; conditions: screening, 100 mg/kg i.p., 0.5 h, mice; for responders at 100 mg/kg: Mus musculus, ip, read-out: scPTZ: number of mice protected/number of mice tested (converted)
Method: (§1) The male Swiss albino mice (CD-1) weighing 18-26 g were used. All procedures were carried out in accordance with applicable Polish and international guidelines on the ethics of animal testing, after obtaining appropriate institutional approval. The substances were administered intraperitoneally (i.p.), in 1% aqueous solution of Tween, as single injections with a volume of 10 ml/kg, 30 minutes before the given test. Screening was performed on groups consisted of 4 mice. The average effective dose (ED50) in given test and toxic dose in the rotarod test (TD50) was estimated based on the results obtained in 3-4 groups of animals consisting of 6 mice. All tests were carried out based on the procedures described in the specialist literature.
In the scPTZ test, seizures were induced by subcutaneous administration of pentylenetetrazole (PTZ) at a dose of 100 mg/kg. This caused clonic seizures with accompanying loss of the righting reflex. Test compounds were administered 30 minutes before the experiment. After PTZ administration, the animals were placed individually in transparent containers and observed for a period of 30 minutes for the occurrence of clonic seizures. During this time, the latency of the first onset of clonic seizures, defined as clonus of the whole body lasting at least 3 seconds with loss of the righting reflex and the number of seizure episodes during the test were noted and compared with control group. The absence of clonic convulsions within the observed time period was interpreted as the compound's ability to protect against PTZ-induced seizures (Ferreri, G.; Chimirri, A.; Russo, E.; Gitto, R.; Gareri, P.; De Sarro, A.; De Sarro, G. Pharmacol. Biochem. Behav. 2004, 77, 85-94; Łączkowski, K.; Sałat, K.; Misiura, K.; Podkowa, A.; Malikowska, N. J. Enzyme Inhib. Med. Chem. 2016, 31, 1576-82).
(§2) To perform a statistical evaluation of the results, one-way ANOVA variance analysis and Dunnett's post hoc test (multiple comparison test) were used. The value at the significance level p<0.05 was considered statistically significant.

[2] = system: male Swiss albino mice (CD-1); experiment: Psychomotor seizure test 6 Hz (32 mA); type: in vivo; conditions: screening, 100 mg/kg i.p., 0.5 h, mice; for responders at 100 mg/kg: Mus musculus, ip, read-out: 6 Hz (32 mA): number of mice protected/number of mice tested (converted)
Method: as §1
In the 6 Hz test, seizures were induced by an electric stimulus of 32 mA and/or 44 mA and a frequency of 6 pulses per second. An electrical pulse was generated using an electric shock generator (ECT Unit 57800; Ugo Basile, Gemonio, Italy) and delivered to the animal using ocular electrodes. Before starting the test, the eye surface was gently moistened with a solution of local anesthetic (1% lidocaine solution). The study was conducted 30 minutes after intraperitoneal administration of the compounds at various doses. An electrical pulse was delivered continuously for a period of 3 seconds, followed by observation of the animal for a period of 10 seconds. During this time, immobility or stun associated with rearing, forelimb clonus, twitching of the vibrissae and Straub's tail were observed. These symptoms persist throughout the observation period, indicating the occurrence of psychomotor seizures in mice. Mice resuming normal behavior within 10 s after stimulation were considered as protected (Barton, M. E.; Klein, B. D.; Wolf, H. H.; White, H. S. Epilepsy Res. 2001, 47, 217-227; Wojda, E.; Wlaź, A.; Patsalos, P. N.; Łuszczki, J. J. Epilepsy Res. 2009, 86, 163-174).
as §2

[3] = system: male Swiss albino mice (CD-1); experiment: Maximal electroshock seizure test (MES); type: in vivo; conditions: screening, 100 mg/kg i.p., 0.5 h, mice; for responders at 100 mg/kg: Mus musculus, ip, read-out: MES: number of mice protected/number of mice tested (converted)
Method: as §1
In the MES test, the seizures were induced by an electrical stimulus lasting of 0.2 s duration, 500 V voltage and 25 mA intensity. The electrical stimuli was generated using an electric shock generator (Rodent shocker, Type 221, Hugo Sachs Elektronik, Germany) and delivered to the animal using electrodes placed on the auricles. The study was conducted 30 minutes after intraperitoneal administration of the compounds at various doses. During the experiment, the number of animals that experienced a seizure episode in the form of tonic extension of the hind limbs was counted (Kamiński, K.; Rapacz, A.; Łuszczki, J. J.; Latacz, G.; Obniska, J.; Kieć-Kononowicz, K.; Filipek, B. Bioorg. Med. Chem. 2015, 23, 2548-2561; Castel-Branco, M. M.; Alves, G. L.; Figueiredo, I. V.; Falcão, A. C.; Caramona, M. M. Methods Find. Exp. Clin. Pharmacol. 2009, 31, 101-106).
as §2

| Structure (SMILES) | melting point | scPTZ: number of mice protected/number of mice tested [1] | 6 Hz (32 mA): number of mice protected/number of mice tested [2] | MES: number of mice protected/number of mice tested [3] | responders at 100 mg/kg [1] | responders at 100 mg/kg [3] | responders at 100 mg/kg [2] |
| --- | --- | --- | --- | --- | --- | --- | --- |
| O=C([C@@H](c1ccccc1)N1C(=O)CCC1=O)N1CCN(c2cccc(SC(F)(F)F)c2)CC1 [(R)-12] | – | ¼ | 4/4 | 4/4 | – | – | – |
| O=C(C(c1ccccc1)N1C(=O)CCC1=O)N1CCN(c2cc(C(F)(F)F)cc(C(F)(F)F)c2)CC1 (racemic) [Compound 8, 1-(2-(4-(3,5-Bis(trifluoromethyl)phenyl)piperazin-1-yl)-2-oxo-1-phenylethyl)pyrrolidine-2,5-dione] | 228.1 to 229.4 °C | – | ¾ | – | 100% | 100% | – |
| CN(C)C1CC(=O)N(C(C(=O)N2CCN(c3cccc(C(F)(F)F)c3)CC2)c2ccccc2)C1=O.Cl (stereo not shown) [Compound 49, 3-(Dimethylamino)-1-(2-oxo-1-phenyl-2-(4-(3-(trifluoromethyl)phenyl)-piperazin-1-yl)ethyl)pyrrolidine-2,5-dione hydrochloride] | 157.8 to 159.2 °C | ¾ | – | – | – | 100% | 100% |
| CCN(CC)C1CC(=O)N(C(C(=O)N2CCN(c3cccc(C(F)(F)F)c3)CC2)c2ccccc2)C1=O.Cl (stereo not shown) [Compound 50, 3-(Diethylamino)-1-(2-oxo-1-phenyl-2-(4-(3-(trifluoromethyl)phenyl)piperazin-1-yl)ethyl)pyrrolidine-2,5-dione hydrochloride] | 142.2 to 143.1 °C | – | – | – | 50% | 100% | 100% |
| O=C(C(c1ccccc1)N1C(=O)CCC1=O)N1CCN(c2ccc(OC(F)(F)F)cc2)CC1 (racemic) [Compound 11, 1-(2-Oxo-1-phenyl-2-(4-(4-(trifluoromethoxy)phenyl)piperazin-1-yl)ethyl)pyrrolidine-2,5-dione] | 102.3 to 103.5 °C | – | ¾ | ¾ | 50% | – | – |
| O=C(C(c1ccccc1)N1C(=O)CCC1=O)N1CCC(c2cccc(Cl)c2)CC1 (racemic) [Compound 18, 1-(2-(4-(3-Chlorophenyl)piperidin-1-yl)-2-oxo-1-phenylethyl)pyrrolidine-2,5-dione] | 111.8 to 113.4 °C | ¾ | ¾ | ¾ | – | – | – |
| O=C(C(c1ccccc1)N1C(=O)CCC1=O)N1CCN(c2ccc3oncc3c2)CC1 (stereo not shown) [Compound 17, 1-(2-(4-(1,2-Benzoxazol-5-il)piperazin-1-yl)-2-oxo-1-phenylethyl)pyrrolidine-2,5-dione] | – | ¾ | ¾ | ¾ | – | – | – |
| CNC1CC(=O)N(C(C(=O)N2CCN(c3cccc(C(F)(F)F)c3)CC2)c2ccccc2)C1=O.Cl (stereo not shown) [Compound 48, 3-(Methylamino)-1-(2-oxo-1-phenyl-2-(4-(3-(trifluoromethyl)phenyl)piperazin-1-yl)ethyl)pyrrolidine-2,5-dione hydrochloride] | 161.2 to 163.4 °C | ¾ | – | – | – | 100% | 100% |
| O=C(C(c1ccccc1)N1C(=O)CCC1=O)N1CCC(c2cccc(OC(F)(F)F)c2)CC1 (racemic) [Compound 20, 1-(2-Oxo-1-phenyl-2-(4-(3-(trifluoromethoxy)phenyl)piperidin-1-yl)ethyl)pyrrolidine-2,5-dione] | 112.1 to 113.2 °C | – | ¾ | – | 50% | 100% | – |
| O=C([C@@H](c1ccccc1)N1C(=O)CCC1=O)N1CCN(c2cc(Cl)cc(Cl)c2)CC1 [(R)-4, (R)-1-(2-(4-(3,5-dichlorophenyl)piperazin-1-yl)-2-oxo-1-phenylethyl)pyrrolidine-2,5-dione] | 174.3 to 175.5 °C | – | – | – | 50% | 100% | 100% |

Second part, led by results:

| melting point | Structure (SMILES) | scPTZ: number of mice protected/number of mice tested [1] | 6 Hz (32 mA): number of mice protected/number of mice tested [2] | MES: number of mice protected/number of mice tested [3] | responders at 100 mg/kg [1] | responders at 100 mg/kg [3] | responders at 100 mg/kg [2] |
| --- | --- | --- | --- | --- | --- | --- | --- |
| 173.2 to 174.3 °C | O=C(C(c1ccccc1)N1C(=O)CCC1=O)N1CCN(c2ccc(C(F)(F)F)cc2)CC1 (racemic) [Compound 7, 1-(2-Oxo-1-phenyl-2-(4-(4-(trifluoromethyl)phenyl)piperazin-1-yl)ethyl)pyrrolidine-2,5-dione] | ¾ | ¾ | ¾ | – | – | – |
| 119.1 to 120 °C | O=C(C(Cc1ccccc1)N1C(=O)CCC1=O)N1CCN(c2cccc(-c3ccccc3)c2)CC1 (stereo not shown) [Compound 24, 1-(1-(4-([1,1′-Biphenyl]-3-yl)piperazin-1-yl)-1-oxo-3-phenylpropan-2-yl)pyrrolidine-2,5-dione] | – | – | – | – | – | – |
| 121.7 to 123.2 °C | O=C(C(Cc1ccccc1)N1C(=O)CCC1=O)N1CCN(c2ccccc2)CC1 (stereo not shown) [Compound 21, 1-(1-Oxo-3-phenyl-1-(4-phenylpiperazin-1-yl)prop-2-yl)pyrrolidine-2,5-dione] | – | – | – | – | – | – |
| 126.1 to 127.2 °C | O=C(C(Cc1ccccc1)N1C(=O)CCC1=O)N1CCN(c2cccc(C(F)(F)F)c2)CC1 (stereo not shown) (as salt: salt) [Example 23, 1-(1-Oxo-3-phenyl-1-(4-(3-(trifluoromethyl)phenyl)piperazin-1-yl)propan-2-yl)pyrrolidine-2,5-dione] | – | – | – | – | – | – |
| 197.1 to 198.5 °C | O=C(C(c1ccccc1)N1C(=O)CCC1=O)N1CCN(c2ccc3ccccc3c2)CC1 (racemic) [Compound 15, 1-(2-(4-(Naphth-2-yl)piperazin-1-yl)-2-oxo-1-phenylethyl)pyrrolidine-2,5-dione] | ¾ | ¾ | – | – | 50% | – |
| 114.3 to 116.2 °C | O=C(C(Cc1ccccc1)N1C(=O)CCC1=O)N1CCN(c2cccc(Cl)c2)CC1 (stereo not shown) [Compound 22, 1-(1-(4-(3-Chlorophenyl)piperazin-1-yl)-1-oxo-3-phenylpropan-2-yl)pyrrolidine-2,5-dione] | – | – | – | – | – | – |
| 104.4 to 105.5 °C | O=C(C(Cc1ccccc1)N1C(=O)CCC1=O)N1CCN(c2cccc(OC(F)(F)F)c2)CC1 (stereo not shown) [Compound 25, 1-(1-Oxo-3-phenyl-1-(4-(3-(trifluoromethoxy)phenyl)piperazin-1-yl)propan-2-yl)pyrrolidine-2,5-dione] | – | – | – | – | – | – |
| 164.1 to 165.3 °C | O=C(C(c1ccccc1)N1C(=O)CCC1=O)N1CCN(c2ccc3sccc3c2)CC1 (racemic) [Compound 16, 1-(2-(4-(Benzo[b]thiophen-5-yl)piperazin-1-yl)-2-oxo-1-phenylethyl)pyrrolidine-2,5-dione] | ¾ | ¾ | ¾ | – | – | – |
